Results as given in ChEMBL document CHEMBL4765407, “Design, synthesis and high antitumor potential of new unsymmetrical bisacridine derivatives towards human solid tumors, specifically pancreatic cancers and their unique ability to stabilize DNA G-quadruplexes” (Eur J Med Chem, 2020).
pIC50: −log10 of the molar value.

Tests used:
NCI-H460 [1] = assay: Cytotoxicity against human NCI-H460 cells assessed as reduction in cell viability measured after 72 hrs by SRB assay; format: functional, cell-based; details: NCI-H460, 72 h
PANC-1 [2] = assay: Cytotoxicity against human PANC-1 cells assessed as reduction in cell viability measured after 72 hrs by SRB assay; format: functional, cell-based; details: PANC-1, 72 h
Quadruplex DNA [3] = assay: Stabilization of 5'-FAM/3'-TAMRA labeled telomeric G4 quadruplex DNA F21T (unknown origin) assessed as change in melting temperature at 10 microM measured after 15 mins by FRET assay; format: nucleic-acid assay
DU-145 = assay: Cytotoxicity against human DU-145 cells assessed as reduction in cell viability measured after 72 hrs by SRB assay; format: functional, cell-based; details: DU-145, 72 h
W256 = assay: Antitumour activity against Walker 256 adenocarcinoma cells implanted in Wistar rat assessed as increase in animal survival rate by measuring T/C ratio at 0.65 mg/kg, ip qd for 3 days administered on day 3,4,5 after tumor cell transplantation; format: functional; details: time 3 day
Quadruplex DNA [4] = assay: Stabilization of 5'-FAM/3'-TAMRA labeled c-Myc promoter G4 quadruplex DNA FPu18 (unknown origin) assessed as change in melting temperature at 10 microM measured after 15 mins by FRET assay; format: nucleic-acid assay
NCI-H460 [5] = assay: Antitumour activity against human NCI-H460 cells xenografted in Crl:Nu-Foxnl nu mouse assessed as inhibition of tumour growth at total effective dose of 16 mg/kg, iv measured on day 14; format: functional; details: 336 h, time 14 day, read-out: TGI
MIA PaCa-2 = assay: Cytotoxicity against human MIA PaCa-2 cells assessed as reduction in cell viability measured after 72 hrs by SRB assay; format: functional, cell-based; details: MIA PaCa-2, 72 h
HCT-116 = assay: Cytotoxicity against human HCT-116 cells assessed as reduction in cell viability measured after 72 hrs by SRB assay; format: functional, cell-based; details: HCT-116, 72 h
ASPC1 = assay: Cytotoxicity against human ASPC1 cells assessed as reduction in cell viability measured after 72 hrs by SRB assay; format: functional, cell-based; details: ASPC1, 72 h
MDA-MB-231 = assay: Cytotoxicity against human MDA-MB-231 cells assessed as reduction in cell viability measured after 72 hrs by SRB assay; format: functional, cell-based; details: MDA-MB-231, 72 h
MCF7 = assay: Cytotoxicity against human MCF7 cells assessed as reduction in cell viability measured after 72 hrs by SRB assay; format: functional, cell-based; details: MCF7, 72 h
HT-29 = assay: Cytotoxicity against human HT-29 cells assessed as reduction in cell viability measured after 72 hrs by SRB assay; format: functional, cell-based; details: HT-29, 72 h
UMUC3 = assay: Cytotoxicity against human UMUC3 cells assessed as reduction in cell viability measured after 72 hrs by SRB assay; format: functional, cell-based; details: UMUC3, 72 h
Quadruplex DNA [6] = assay: Stabilization of 5'-FAM/3'-TAMRA labeled K-Ras G4 quadruplex DNA (unknown origin) assessed as change in melting temperature at 10 microM measured after 15 mins by FRET assay; format: nucleic-acid assay
PANC-1 [7] = assay: Antitumour activity against human PANC-1 cells xenografted in Crl:Nu-Foxnl nu mouse assessed as inhibition of tumour growth at total effective dose of 10 mg/kg, iv measured on day 45; format: functional; details: PANC-1, iv, 1080 h, time 45 day, read-out: TGI
PC-3 = assay: Cytotoxicity against human PC-3 cells assessed as reduction in cell viability measured after 72 hrs by SRB assay; format: functional, cell-based; details: PC-3, 72 h
NCI-H460 [8] = assay: Antitumour activity against human NCI-H460 cells xenografted in Crl:Nu-Foxnl nu mouse assessed as inhibition of tumour growth at total effective dose of 5 mg/kg, iv measured on day 15; format: functional; details: 360 h, time 15 day, read-out: TGI
PANC-1 [9] = assay: Antitumour activity against human PANC-1 cells xenografted in Crl:Nu-Foxnl nu mouse assessed as inhibition of tumour growth at total effective dose of 16 mg/kg, iv measured on day 38; format: functional; details: PANC-1, iv, 912 h, time 38 day, read-out: TGI
[10] = Stabilization of ds 5'-FAM-d(TATAGCTATA-HEG-TATAGCTATA)-TAMRA-3' (unknown origin) assessed as change in melting temperature at 10 microM measured after 15 mins by FRET assay; details: Homo sapiens
Capan-2 = assay: Cytotoxicity against human Capan-2 cells assessed as reduction in cell viability measured after 72 hrs by SRB assay; format: functional, cell-based; details: Capan-2, 72 h
PANC-1 [11] = assay: Antitumour activity against human PANC-1 cells xenografted in Crl:Nu-Foxnl nu mouse assessed as inhibition of tumour growth at total effective dose of 16 mg/kg, iv measured on day 60; format: functional; details: PANC-1, iv, 1440 h, time 60 day, read-out: TGI
BXPC-3 = assay: Cytotoxicity against human BXPC-3 cells assessed as reduction in cell viability measured after 72 hrs by SRB assay; format: functional, cell-based; details: BXPC-3, 72 h
PANC-1 [12] = assay: Antitumour activity against human PANC-1 cells xenografted in Crl:Nu-Foxnl nu mouse assessed as inhibition of tumour growth at total effective dose of 120 mg/kg, iv measured on day 37; format: functional; details: PANC-1, iv, 888 h, time 37 day, read-out: TGI
PANC-1 [13] = assay: Antitumour activity against human PANC-1 cells xenografted in Crl:Nu-Foxnl nu mouse assessed as inhibition of tumour growth at total effective dose of 16 mg/kg, iv measured on day 40; format: functional; details: PANC-1, iv, 960 h, time 40 day, read-out: TGI
PANC-1 [14] = assay: Antitumour activity against human PANC-1 cells xenografted in Crl:Nu-Foxnl nu mouse assessed as inhibition of tumour growth at total effective dose of 160 mg/kg, iv measured on day 56; format: functional; details: PANC-1, iv, 1344 h, time 56 day, read-out: TGI

| Compound | pIC50 (PANC-1 [2]) | ΔTm (Quadruplex DNA [3]) [°C] | pIC50 (DU-145) | ΔTm (Quadruplex DNA [4]) [°C] | pIC50 (MIA PaCa-2) | pIC50 (HCT-116) | pIC50 (ASPC1) | pIC50 (MDA-MB-231) | pIC50 (MCF7) | ΔTm (Quadruplex DNA [6]) [°C] | pIC50 (BXPC-3) | other results |
| --- | --- | --- | --- | --- | --- | --- | --- | --- | --- | --- | --- | --- |
| CN(CCCNc1c2ccccc2nc2cccc([N+](=O)[O-])c12)CCCNc1ccc([N+](=O)[O-])c2[nH]c3ccccc3c(=O)c12 | 7.55 | 24.5 | 7.62 | 19.4 | 6.99 | 6.59 | 7.18 | 7.55 | 6.16 | 27.4 |  | pIC50 (NCI-H460 [1]): 8.00; T/C (W256): 450%; inhibition in vivo at 16 mg/kg (NCI-H460 [5]): 35%; pIC50 (HT-29): 7.17; pIC50 (UMUC3): 7.54; inhibition in vivo at 10 mg/kg (PANC-1 [7]): 23%; pIC50 (PC-3): 7.29; inhibition in vivo at 5 mg/kg (NCI-H460 [8]): 14% |
| O=c1c2ccccc2n2cnc3ccc(NCCNc4c5ccccc5nc5cccc([N+](=O)[O-])c45)c1c32 | 7.43 | 31.6 | 7.40 | 19.3 | 7.19 | 6.99 | 7.07 | 7.57 | 7.09 | 19.5 | 6.86 | inhibition in vivo at 16 mg/kg (PANC-1 [9]): 60%; ΔTm [10]: 10.4 °C; pIC50 (Capan-2): 7.36; inhibition in vivo at 16 mg/kg (PANC-1 [11]): 76% |
| Cc1nc2ccc(NCCCN3CCN(CCC(N)c4ccc5nc6ccccc6cc5c4[N+](=O)[O-])CC3)c3c(=O)c4cc(O)ccc4n1c23 (configuration not stated) | 7.41 |  | 7.62 |  | 7.74 | 7.57 | 6.82 |  |  |  | 6.82 | inhibition in vivo at 120 mg/kg (PANC-1 [12]): 64%; inhibition in vivo at 16 mg/kg (PANC-1 [13]): 68%; inhibition in vivo at 160 mg/kg (PANC-1 [14]): 69% |
